The results in this text go back to paper PMC12040169 (PLOS Biology, 2025).

The nature of this data set: in vitro. Conditions: human, hela cells, % viability.

The structures appear in SMILES notation.

With `O=c1[nH]cnc2ccc(Br)cc12` [CBK026537], the viability at 28.5 h, 10 µM is 93.7%.

Consider `CC(C)c1ccc(SCCc2ccccn2)cc1` [CBK026575C], for which the viability at 28.5 h, 10 µM was found to be 88.8%.

On to `CCCCN(/C=N/S(=O)(=O)c1ccccc1)CCCC` [CBK026576], for which the viability at 28.5 h, 10 µM came to 92.2%.

For `CCN(CC)CCN(C)Cc1ccccc1Br` [CBK026593], the viability at 28.5 h, 10 µM was determined as 92.8%.

With `CN(C)CCP(=O)(c1ccccc1)c1ccccc1` [CBK026596], the viability at 28.5 h, 10 µM is 109%.

Turning to `N#CCCNCC1COc2ccccc2O1` (centres unmarked) [CBK026615], the viability at 28.5 h, 10 µM was 97.7%.

As for `Cn1c(=O)n(CC(=O)O)c(=O)c2c1nc(Br)n2Cc1ccccc1` [CBK026617], the viability at 28.5 h, 10 µM is 94.8%.

As for `O=C(O)c1ccc(-c2c(Cl)cc([N+](=O)[O-])cc2Cl)o1` [CBK026623], the viability at 28.5 h, 10 µM is 102%.

For `CCOC(=O)c1ccc(-c2[nH]cnc2-c2c(C)cc(OC)cc2O)o1` [CBK026647], the viability at 28.5 h, 10 µM is 113%.

Take `O=S(=O)(Nc1nnc(C(F)(F)F)s1)c1ccc(F)cc1` [CBK026663]: the viability at 28.5 h, 10 µM was 91.4%.

In the case of `COC(=O)c1ccsc1NS(=O)(=O)c1ccccc1` [CBK026667], the viability at 28.5 h, 10 µM is 88.7%.

In the case of `Cc1ccc(S(=O)(=O)Nc2nnc(SCC(=O)Nc3ccc4c(c3)OCO4)s2)cc1` [CBK026675], the viability at 28.5 h, 10 µM was 100%.

`COC(=O)c1scc(NS(=O)(=O)c2ccc(Cl)cc2Cl)c1C(=O)OC` [CBK026681]: the viability at 28.5 h, 10 µM turned out to be 89.4%.

For `COC(=O)c1c(NC(=O)c2ccccc2)csc1C` [CBK026684], the viability at 28.5 h, 10 µM stood at 90.3%.

On to `Nc1nonc1-c1noc(-c2cccc(Cl)c2)n1` [CBK026691], for which the viability at 28.5 h, 10 µM was determined as 90.2%.

For the compound `CCC#CC(=O)Nc1cncc(OC2CCNCC2)n1` [CBK026731T], the viability at 28.5 h, 10 µM is 93%.

In the case of `CSc1nc(NC(=O)C2CCCO2)cc(N2CCNCC2)n1` (centres unmarked) [CBK026740T], the viability at 28.5 h, 10 µM was 90.5%.

Regarding `CN1CCN(c2n[nH]c(N)n2)CC1` [CBK026743], the viability at 28.5 h, 10 µM turned out to be 90.5%.

Regarding `CCOC(=O)c1sc(Cl)nc1C(F)(F)F` [CBK026746], the viability at 28.5 h, 10 µM turned out to be 103%.

Regarding `O=C(NCCN1CCOCC1)C1CC2CCC1C2` (centres unmarked) [CBK026764], the viability at 28.5 h, 10 µM came to 115%.

As for `CCN(CC(O)COc1cc(C)c(Cl)c(C)c1)S(=O)(=O)O` (centres unmarked) [CBK026767N], the viability at 28.5 h, 10 µM worked out at 106%.

For `COC(=O)n1c(=O)oc2ccc(Cl)cc21` [CBK026774], the viability at 28.5 h, 10 µM came out at 101%.

On to `CC(NC(=O)N(Cc1c[nH]c(-c2ccccc2)n1)CC(C)(C)CN)c1cccc2ccccc12` (centres unmarked) [CBK026801C], for which the viability at 28.5 h, 10 µM was determined as 96.3%.

Regarding `CC(C)(CN)CN(Cc1ccccc1C(F)(F)F)C(=O)Nc1ccc(Cl)cc1Cl` [CBK026832C], the viability at 28.5 h, 10 µM was 93.5%.

With `O=C(O)c1cnc(Cl)c(Br)c1` [CBK026874], the viability at 28.5 h, 10 µM was 83.7%.

Regarding `O=C1CSC(Nc2nc(-c3ccccc3)cs2)=N1` [CBK026880], the viability at 28.5 h, 10 µM was found to be 104%.

Turning to `CC(C)(C)C1CCC(OC(=O)CCC(=O)O)CC1` (centres unmarked) [CBK026882], the viability at 28.5 h, 10 µM was found to be 105%.

On to `O=S(=O)(CCSc1nc2ccccc2s1)c1nc2ccccc2s1` [CBK026908], for which the viability at 28.5 h, 10 µM came to 92.4%.

Turning to `Brc1ccc(-c2nc(CSc3nnnn3C3CCCCC3)no2)cc1` [CBK026913], the viability at 28.5 h, 10 µM amounted to 110%.

On to `CC1CCc2nc(NS(=O)(=O)c3ccccc3)sc2C1` (centres unmarked) [CBK026915], for which the viability at 28.5 h, 10 µM is 110%.

`COC(=O)Nc1nc2cc(F)c(Cl)cc2[nH]1` [CBK026927]: the viability at 28.5 h, 10 µM is 102%.

Regarding `CC(Oc1ccccc1Br)c1nc(-c2nonc2N)no1` (centres unmarked) [CBK026982], the viability at 28.5 h, 10 µM stood at 86.2%.

Regarding `CCOC(=O)C1CCN(Cc2cccs2)CC1` [CBK026999], the viability at 28.5 h, 10 µM was found to be 86.3%.

With `CN(C)CC(O)CN1C(=O)NC(C)(C)C1=O` (centres unmarked) [CBK027078], the viability at 28.5 h, 10 µM came to 114%.

As for `O=c1[nH][nH]c2nc(O)cc(C(F)(F)F)c12` [CBK027081], the viability at 28.5 h, 10 µM stood at 109%.

Broadly, the viability is a read-out of living cells in per cent, often relative to untreated cells.
